Data taken from patent publication US8906904B2, “Alkoxy pyrazoles as soluble guanylate cyclase activators” (Boehringer Ingelheim International GmbH, priority 2012, dated 2014).
Converted amounts (≈) assume the structure as drawn.

Assay: Assessment of solubility (McIlvaine buffers, 24 h shake, UPLC-UV)
Type: physicochemical
Conditions: kinetic from dmso stock
Procedure: Solubility is measured by the following method.
100 uL, 10 mM DMSO stock solution of each compound is prepared in a 96 well plate format. The experiment is done in single determination at 3 pH values (2.2, 4.5 and 6.8). For each pH and one reference, 40 uL of each compound is needed.
McIlvaine pH 2.2: To 2.076 g citric acid monohydrate and 0.043 g Na2HPO4×2H2O add 100 ml deionized water
McIlvaine pH 4.5: To 1.166 g citric acid monohydrate and 1.585 g Na2HPO4×2H2O add 100 ml deionized water
McIlvaine pH 6.8: To 0.476 g citric acid monohydrate and 2.753 g Na2HPO4×2H2O add 100 ml deionized water
With a suitable liquid handling device (Multipette® or a liquid handler) 390 uL of each buffer solution and 10 uL of compound is added to each well of a 96 deep well plate. The plates are covered firmly and shaken for 24 h on an over head shaker (at 54 RPM) at room temperature. The DMSO content in the final buffer is 2.5% v/v.
After 24 h the plates are centrifuged to remove droplets on the lid before opening (for ˜5 min at 2500 RPM).
The filtration is done under vacuum with Millipore 96 well filter plate. Filtrate is collected in a deep well plate and transferred to a suitable plate for UPLC analysis.
The reference plate is prepared by adding 10 uL of compound to 390 uL of 50:50 acetonitrile/water in a 96 deep well plate and transferred to a suitable plate for UPLC analysis. Wells are checked visually for precipitation, any presence noted under comments in reported results.
The samples are measured with UPLC-UV using the chromatographic method described below.
Waters Empower®2 software is used for generating Sample Sets (according to the plate layout), Sample Set Methods and Instrument Methods.
One Sample Set comprises the methods for three 96 well plates (one reference plate and two sample plates, and includes one Sample Set Method and one Instrument Method).
3. Data Processing and Analysis
The UV chromatograms collected at 254 nm are integrated and processed.
It is assumed that the compound is completely dissolved in the reference solution (50:50 acetonitrile/water)

SMILES | solubility at 24 h (pH 2.2, aqueous buffer) | solubility at 24 h (pH 4.5, aqueous buffer) | solubility at 24 h (pH 6.8, aqueous buffer)
COc1c(C(=O)O)cnn1-c1cccc(-c2cccc(C)c2OCc2cc(C)c3c(c2C)CCN(C2CCOCC2)C3)n1 [Compound 120] | 110 µg/mL (≈ 189 µM) | 94 µg/mL (≈ 161 µM) | 97 µg/mL (≈ 166 µM)
CCOc1c(C(=O)O)cnn1-c1cccc(-c2cccc(C)c2OCc2cc(C)c3c(c2)CN(C2CCOCC2)C3)n1 [Compound 118] | 110 µg/mL (≈ 193 µM) | 84 µg/mL (≈ 148 µM) | 92 µg/mL (≈ 162 µM)
CCOc1c(C(=O)O)cnn1-c1cccc(-c2cccc(C)c2OCc2ccc3c(c2)CCN(CC2CCCO2)C3)n1 (stereo not drawn) [Compound 101, 5-ethoxy-1-(6-{3-methyl-2-[2-(tetrahydro-furan-2-ylmethyl)-1,2,3,4-tetrahydro-isoquinolin-6-ylmethoxy]-phenyl}-pyridin-2-yl)-1H-pyrazole-4-carboxylic acid] | 90 µg/mL (≈ 158 µM) | 73 µg/mL (≈ 128 µM) | 74 µg/mL (≈ 130 µM)
Cc1cccc(-c2cccc(-n3ncc(C(=O)O)c3OC(C)C)n2)c1OCc1ccc2c(c1)CCN([C@@H]1CCCOC1)C2 [Compound 113] | 94 µg/mL (≈ 161 µM) | 80 µg/mL (≈ 137 µM) | 84 µg/mL (≈ 144 µM)
CCOc1c(C(=O)O)cnn1-c1cccc(-c2cccc(C)c2OCc2ccc3c(c2)CCN(CC2CC(=O)N(C)C2)C3)n1 (stereo not drawn) [Compound 97, 5-ethoxy-1-(6-{3-methyl-2-[2-(1-methyl-5-oxo-pyrrolidin-3-ylmethyl)-1,2,3,4-tetrahydro-isoquinolin-6-ylmethoxy]-phenyl}-pyridin-2-yl)-1H-pyrazole-4-carboxylic acid] | 91 µg/mL (≈ 153 µM) | 72 µg/mL (≈ 121 µM) | 77 µg/mL (≈ 129 µM)
CCOc1c(C(=O)O)cnn1-c1cccc(-c2cccc(C)c2OCc2ccc3c(c2C)CCN(C[C@@H]2CCCOC2)C3)n1 [Compound 152] | 97 µg/mL (≈ 163 µM) | 74 µg/mL (≈ 124 µM) | 74 µg/mL (≈ 124 µM)
COc1c(C(=O)O)cnn1-c1cccc(-c2ccc(C)cc2OCc2ccc3c(c2)CCN(C2CCOCC2)C3)n1 [Compound 98] | 150 µg/mL (≈ 270 µM) | 110 µg/mL (≈ 198 µM) | 99 µg/mL (≈ 178 µM)
COc1c(C(=O)O)cnn1-c1cccc(-c2cccc(C)c2OCc2ccc3c(c2)CCN(CC2(C)COC2)C3)n1 [Compound 12] | 110 µg/mL (≈ 198 µM) | 90 µg/mL (≈ 162 µM) | 92 µg/mL (≈ 166 µM)
CCOc1c(C(=O)O)cnn1-c1cccc(-c2cccc(C)c2OCc2ccc3c(c2C)CCN(CC2CCOC(C)(C)C2)C3)n1 (stereo not drawn) [Compound 163] | 110 µg/mL (≈ 176 µM) | 75 µg/mL (≈ 120 µM) | 73 µg/mL (≈ 117 µM)
CCOc1c(C(=O)O)cnn1-c1cccc(-c2cccc(C)c2OCc2ccc3c(c2C)CN(C2CCOCC2)C3)n1 [Compound 119] | 110 µg/mL (≈ 193 µM) | 89 µg/mL (≈ 157 µM) | 97 µg/mL (≈ 171 µM)
COc1c(C(=O)O)cnn1-c1cccc(-c2cccc(C)c2OCc2ccc3c(c2)CCN(CC(F)(F)F)C3)n1 [Compound 11, 5-methoxy-1-(6-{3-methyl-2-[2-(2,2,2-trifluoro-ethyl)-1,2,3,4-tetrahydro-isoquinolin-6-ylmethoxy]-phenyl}-pyridin-2-yl)-1H-pyrazole-4-carboxylic acid] | 23 µg/mL (≈ 41.6 µM) | < 0.1 µg/mL | 80 µg/mL (≈ 145 µM)
COc1c(C(=O)O)cnn1-c1cccc(-c2cccc(C)c2OCc2ccc3c(c2C)CCN(C2CCOCC2)C3=O)n1 [Compound 167, 5-Methoxy-1-(6-{3-methyl-2-[5-methyl-1-oxo-2-(tetrahydro-pyran-4-yl)-1,2,3,4-tetrahydro-isoquinolin-6-ylmethoxy]-phenyl}-pyridin-2-yl)-1H-pyrazole-4-carboxylic acid] | 2.1 µg/mL (≈ 3.6 µM) | 5.9 µg/mL (≈ 10.1 µM) | 83 µg/mL (≈ 142 µM)
Cc1cccc(-c2cccc(-n3ncc(C(=O)O)c3OC(C)C)n2)c1OCc1ccc2c(c1)CCN([C@H]1CCOC1)C2 [Compound 111] | 87 µg/mL (≈ 153 µM) | 69 µg/mL (≈ 121 µM) | 75 µg/mL (≈ 132 µM)
CC(C)Oc1c(C(=O)O)cnn1-c1cccc(-c2ccccc2OCc2ccc3c(c2)CCN(C2CCOCC2)C3)n1 [Compound 144] | 110 µg/mL (≈ 193 µM) | 89 µg/mL (≈ 157 µM) | 93 µg/mL (≈ 164 µM)
COc1c(C(=O)O)cnn1-c1cccc(-c2ccc(C)cc2OCc2ccc3c(c2C)CCN(C2CCOCC2)C3)n1 [Compound 99] | 150 µg/mL (≈ 264 µM) | 120 µg/mL (≈ 211 µM) | 110 µg/mL (≈ 193 µM)

Now from value to compound:

solubility at 24 h (pH 2.2, aqueous buffer) | solubility at 24 h (pH 4.5, aqueous buffer) | solubility at 24 h (pH 6.8, aqueous buffer) | SMILES
120 µg/mL (≈ 196 µM) | 100 µg/mL (≈ 164 µM) | 110 µg/mL (≈ 180 µM) | CC[C@H](C)Oc1c(C(=O)O)cnn1-c1cccc(-c2cccc(C)c2OCc2ccc3c(c2C)CCN(C2CCOCC2)C3)n1 [Compound 136]
100 µg/mL (≈ 180 µM) | 72 µg/mL (≈ 130 µM) | 86 µg/mL (≈ 155 µM) | COc1c(C(=O)O)cnn1-c1cccc(-c2cccc(C)c2OCc2cc(C)c3c(c2C)CCN(C2COC2)C3)n1 [Compound 178]
110 µg/mL (≈ 180 µM) | 94 µg/mL (≈ 154 µM) | 100 µg/mL (≈ 164 µM) | Cc1cccc(-c2cccc(-n3ncc(C(=O)O)c3OCC(C)C)n2)c1OCc1ccc2c(c1C)CCN(C1CCOCC1)C2 [Compound 134]
140 µg/mL (≈ 246 µM) | 120 µg/mL (≈ 211 µM) | 120 µg/mL (≈ 211 µM) | COc1c(C(=O)O)cnn1-c1cccc(-c2cccc(C)c2OCc2ccc3c(c2C)CCN([C@@H]2CCCOC2)C3)n1 [Compound 140]
120 µg/mL (≈ 205 µM) | 87 µg/mL (≈ 149 µM) | 93 µg/mL (≈ 159 µM) | COc1c(C(=O)O)cnn1-c1cccc(-c2cccc(C)c2OCc2ccc3c(c2C)CCN(C[C@H]2COCCO2)C3)n1 [Compound 142]
110 µg/mL (≈ 193 µM) | 80 µg/mL (≈ 141 µM) | 85 µg/mL (≈ 149 µM) | CCOc1c(C(=O)O)cnn1-c1cccc(-c2cccc(C)c2OCc2ccc3c(c2C)CCN(C2COC2)CC3)n1 [Compound 175]
110 µg/mL (≈ 193 µM) | 88 µg/mL (≈ 155 µM) | 97 µg/mL (≈ 171 µM) | COc1c(C(=O)O)cnn1-c1cccc(-c2cccc(C)c2OCc2ccc3c(c2)CCCN(C2CCOCC2)C3)n1 [Compound 100]
110 µg/mL (≈ 202 µM) | 58 µg/mL (≈ 107 µM) | 86 µg/mL (≈ 158 µM) | COc1c(C(=O)O)cnn1-c1cccc(-c2cccc(C)c2OCc2ccc3c(c2F)CCN(C2COC2)C3)n1 [Compound 177]
100 µg/mL (≈ 167 µM) | 67 µg/mL (≈ 112 µM) | 78 µg/mL (≈ 130 µM) | COCCOc1c(C(=O)O)cnn1-c1cccc(-c2cccc(C)c2OCc2ccc3c(c2C)CCN(C2CCOC2)C3)n1 (stereo not drawn) [Compound 150]
130 µg/mL (≈ 228 µM) | 100 µg/mL (≈ 175 µM) | 110 µg/mL (≈ 193 µM) | COc1c(C(=O)O)cnn1-c1cccc(-c2cccc(C)c2OCc2ccc3c(c2)OCCN(C2CCOCC2)C3)n1 [Compound 130]
110 µg/mL (≈ 180 µM) | 97 µg/mL (≈ 159 µM) | 100 µg/mL (≈ 164 µM) | CC[C@H](C)Oc1c(C(=O)O)cnn1-c1cccc(-c2cccc(C)c2OCc2ccc3c(c2C)CCN(C2CCCOC2)C3)n1 (stereo partly drawn) [Compound 135]
120 µg/mL (≈ 201 µM) | 99 µg/mL (≈ 166 µM) | 100 µg/mL (≈ 168 µM) | CCCOc1c(C(=O)O)cnn1-c1cccc(-c2cccc(C)c2OCc2ccc3c(c2C)CCN(C2CCOCC2)C3)n1 [Compound 133]
< 0.1 µg/mL | 0.93 µg/mL (≈ 1.65 µM) | 73 µg/mL (≈ 130 µM) | COc1c(C(=O)O)cnn1-c1cccc(-c2cccc(C)c2OCc2ccc3c(c2C)CCN(S(C)(=O)=O)C3)n1 [Compound 160]
110 µg/mL (≈ 201 µM) | 77 µg/mL (≈ 141 µM) | 91 µg/mL (≈ 166 µM) | COc1c(C(=O)O)cnn1-c1cccc(-c2cccc(Cl)c2OCc2ccc3c(c2)CCN(C2COC2)C3)n1 [Compound 7]
120 µg/mL (≈ 206 µM) | 99 µg/mL (≈ 170 µM) | 100 µg/mL (≈ 172 µM) | CCOc1c(C(=O)O)cnn1-c1cccc(-c2cccc(C)c2OCc2ccc3c(c2C)CCN(C2CCOCC2)C3)n1 [Compound 114]
110 µg/mL (≈ 209 µM) | 82 µg/mL (≈ 156 µM) | 98 µg/mL (≈ 186 µM) | COc1c(C(=O)O)cnn1-c1cccc(-c2cccc(C)c2OCc2ccc3c(c2)CCN(C2COC2)C3)n1 [Compound 8]
99 µg/mL (≈ 178 µM) | 71 µg/mL (≈ 128 µM) | 91 µg/mL (≈ 164 µM) | CCOc1c(C(=O)O)cnn1-c1cccc(-c2cccc(C)c2OCc2cc(C)c3c(c2)CCN(C2COC2)C3)n1 [Compound 174]
102 µg/mL (≈ 171 µM) | 82 µg/mL (≈ 137 µM) | 85 µg/mL (≈ 142 µM) | Cc1cccc(-c2cccc(-n3ncc(C(=O)O)c3OC(C)C)n2)c1OCc1ccc2c(c1C)CCN([C@H]1CCCOC1)C2 [Compound 117]
95 µg/mL (≈ 163 µM) | 79 µg/mL (≈ 136 µM) | 79 µg/mL (≈ 136 µM) | CCOc1c(C(=O)O)cnn1-c1cccc(-c2cccc(C)c2OCc2ccc3c(c2C)CCN([C@H]2CCCOC2)C3)n1 [Compound 129]
85 µg/mL (≈ 142 µM) | 36 µg/mL (≈ 60.3 µM) | 57 µg/mL (≈ 95.5 µM) | CCOc1c(C(=O)O)cnn1-c1cccc(-c2cccc(C)c2OCc2ccc3c(c2CC)CCN(C2CCOCC2)C3)n1 [Compound 154]
